The values that follow come from US12624309B2, “Enol ether properfume” (Firmenich SA, priority 2020, dated 2026).

This data set is described as follows: Acid-catalyzed hydrolysis of enol ethers in THF/1 M HCl, percent remaining by GC-FID. The format is physicochemical. As to conditions: for percent remaining, 24 h / percent remaining, 48 h / percent remaining, 72 h / percent remaining, 168 h / percent remaining, 336 h / percent remaining, 504 h / percent remaining, 672 h / percent remaining, initial / rate of hydrolysis / hydrolytic stability compared to corresponding enol ethers prepared from alkyl alcohols: THF/1M HCl (80:20 v/v); for percent remaining, 24 h / percent remaining, 48 h / percent remaining, 72 h / percent remaining, 168 h / percent remaining, 336 h / percent remaining, 504 h / percent remaining, 672 h / percent remaining, initial: room temperature; for percent remaining, initial: time zero; for rate of hydrolysis / hydrolytic stability compared to corresponding enol ethers prepared from alkyl alcohols: in words; for enol ether remained after 504 h (21 days): Table 1, THF/1M HCl. On the procedure:
Each enol ether was dissolved in a 4:1 THF/1 M HCl mixture and the percent remaining over time measured relative to an internal standard.
After mixing, 2 mL of this solution were removed with a volumetric pipet and used to obtain the time zero measurement. 2 mL of 1 M HCl were mixed with the remaining 8 mL of the THF solution. This mixture was divided into 5 mL vials (1 mL per vial). The vials were gently topped with nitrogen and fitted with screw caps around which parafilm was wrapped. The vials were stored at room temperature until analyzed. For analyses, 2 mL of ethyl acetate was added to a vial and mixed. After phase separation, the top phase was collected and washed with saturated sodium carbonate (1 mL). Samples of the organic phase were analyzed by GC-FID. For the time zero sample, 0.5 mL of deionized water was added to the 2 mL taken from the original THF solution. 1 mL of this solution was added to a 5 mL vial and diluted with 2 mL of ethyl acetate and mixed. The top phase was collected and washed with saturated sodium carbonate (1 mL). The top phase then was analyzed by GC-FID. The percent of enol ether remaining was determined by dividing the peak area ratio of the enol ether to internal standard by the ratio measured at time zero.

For `CCCCCC(CC)OC=C(C)c1ccccc1` (stereo not shown) [(1-(octan-3-yloxy)prop-1-en-2-yl)benzene, reference compound], the “percent remaining, 24 h” value came out at 96.2%; the “percent remaining, 48 h” value is given as 92.4%; the “percent remaining, 72 h” value came out at 89.3%; the “percent remaining, 168 h” value worked out at 76.6%. The “percent remaining, 336 h” value worked out at 57.3%; the “percent remaining, 504 h” value is 44.5%; the “percent remaining, 672 h” value turned out to be 33.6%; the “percent remaining, initial” value is on record as 100%.

Regarding `CC(=COCCc1ccccc1)c1ccc(C)cc1` [1-methyl-4-(1-phenethoxyprop-1-en-2-yl)benzene, reference compound], the “percent remaining, 24 h” value is listed as 97.8%; the “percent remaining, 48 h” value is 95.5%; the “percent remaining, 72 h” value stood at 93.9%; the “percent remaining, 168 h” value came out at 85.0%. Besides, the “percent remaining, 336 h” value is given as 70.4%; the “percent remaining, 504 h” value is 57.3%; the “percent remaining, 672 h” value worked out at 42.5%; the “percent remaining, initial” value amounted to 100%.

Consider `COC(=O)C(C)(C)OC=C(C)c1ccc(OC)cc1` [Compound 27, methyl 2-((2-(4-methoxyphenyl)prop-1-en-1-yl)oxy)-2-methylpropanoate], for which the “percent remaining, 24 h” value stood at 102%; the “percent remaining, 48 h” value is 101%; the “percent remaining, 72 h” value stood at 99.7%; the “percent remaining, 168 h” value turned out to be 97.8%. Also, the “percent remaining, 336 h” value came to 87.7%; the “percent remaining, 504 h” value is listed as 89.1%; the “percent remaining, 672 h” value is recorded as 84.7%; the “percent remaining, initial” value is given as 100%.

Regarding `COC(=O)C(C)(C)OC=C(C)c1ccccc1` [Compound 25, methyl 2-methyl-2-((2 phenylprop-1-en-1-yl)oxy)propanoate], the “rate of hydrolysis / hydrolytic stability compared to corresponding enol ethers prepared from alkyl alcohols” value is “improved hydrolytic stability”; the “percent remaining, 72 h” value was 100%; the “percent remaining, 168 h” value was found to be 98.1%; the “percent remaining, 336 h” value is 93.6%. In addition, the “percent remaining, 504 h” value stood at 90.0%; the “percent remaining, 672 h” value is reported as 89.6%; the “percent remaining, initial” value was 100%.

As to `C(=Cc1ccccc1)OCCc1ccccc1` [(2-phenethoxyvinyl)benzene, reference compound], the “percent remaining, 24 h” value was 94.6%; the “percent remaining, 48 h” value is 90.0%; the “percent remaining, 72 h” value was found to be 83.7%; the “percent remaining, 168 h” value came to 66.4%. For the same compound, the “percent remaining, 336 h” value came to 45.2%; the “percent remaining, 504 h” value came out at 35.9%; the “percent remaining, 672 h” value came to 25.0%; the “percent remaining, initial” value stood at 100%. Besides, the “enol ether remained after 504 h (21 days)” value was 39.5%.

`CCCCCC(CC)OC(=O)C(C)OC=C(C)c1ccccc1` (racemic) [Compound 44, (±)-octan-3-yl 2-((2-phenylprop-1-en-1-yl)oxy)propanoate]: the “rate of hydrolysis / hydrolytic stability compared to corresponding enol ethers prepared from alkyl alcohols” value was “improved hydrolytic stability”; the “percent remaining, 24 h” value was 99.3%; the “percent remaining, 48 h” value was 99.5%; the “percent remaining, 72 h” value was found to be 98.9%. The “percent remaining, 168 h” value came out at 96.5%; the “percent remaining, 336 h” value is on record as 93.3%; the “percent remaining, 504 h” value is on record as 90.4%; the “percent remaining, 672 h” value is reported as 88.6%. For the same compound, the “percent remaining, initial” value was 100%.

In the case of `CC/C=C\CCOC(=O)C(C)OC=Cc1ccc(OC)cc1` (racemic) [Compound 42, (±)-(Z)-hex-3-en-1-yl 2-((4-methoxystyryl)oxy)propanoate], the “percent remaining, 24 h” value was found to be 95.1%; the “percent remaining, 48 h” value was determined as 93.9%; the “percent remaining, 72 h” value is reported as 89.8%; the “percent remaining, 168 h” value is listed as 78.1%. Besides, the “percent remaining, 336 h” value is 60.1%; the “percent remaining, 504 h” value is given as 46.8%; the “percent remaining, 672 h” value is given as 35.2%; the “percent remaining, initial” value is given as 100%. For the same compound, the “enol ether remained after 504 h (21 days)” value was found to be 46.8%.
